Earlier results, collected in patent US20260027339A1, “FLEXIBLE IMPLANTABLE DEPOTS FOR CONTROLLED DRUG RELEASE” (Foundry Therapeutics, Inc., priority 2023, published 2026).
Where two headings read alike, the source gives them in different places.

What was measured:
[1] = at 25° C.

SMILES | vapor pressure [1] | LD50 (rats; intravenous) | LD50 (rats; subcutaneous)
CCCCN1CCCCC1C(=O)Nc1c(C)cccc1C (stereo not drawn) [bupivacaine] | – | 6 mg/kg | 43 mg/kg
CCOC(=O)c1ccccc1C(=O)OCC [diethyl phthalate] | 0.28 Pa | – | –
CC(=O)OCC(COC(C)=O)OC(C)=O [triacetin] | 0.33 Pa | – | –

More lines, main results first:

vapor pressure [1] | SMILES | LD50 (rats; intravenous) | LD50 (rats; subcutaneous)
12.53 | OCc1ccccc1 [benzyl alcohol] | – | –
0.03 Pa | O=C(OCc1ccccc1)c1ccccc1 [benzyl benzoate] | – | –
